We go through 6 compounds from PMC11784096, “Synthesis, antibacterial evaluation and in silico studies of novel 2-(benzo[d]thiazol-2-yl)-N-arylacetamides and their derivatives as potential DHFR inhibitors” (BMC Chemistry, 2025).

Assay [1] deals with St. mutans. The experiment in a line: Agar diffusion method, inhibition zone diameter. The format is cell-based. The note with it: Gram-positive. The source says:
(§1) The bacterial growth inhibition activity of most of the newly synthesized compounds was examined against different Gram-positive and Gram-negative strains. The Agar diffusion method was used to assess the antibacterial and antifungal activity. The Gram-negative strains were: E. coli, K. pneumonia, P. aeruginosa and A. baumannii, the Gram-positive strains were: St. aureus, St. mutans and the standard antibiotics were gentamicin, tigecycline and ampicillin.
(§2) The agar-based media plate surface was inoculated by spreading a volume of the microbial inoculum over the entire agar surface.
(§3) Using a sterile cork borer or a tip, a hole with a diameter of 6 to 8 mm was made.
(§4) Using a micropipette, (20 µL) volume of the antimicrobial agent or extract solution at the desired concentration was introduced into the well.
(§5) The inoculated plates were incubated under suitable conditions depending upon the tested microorganism. The antimicrobial agent diffused through the agar medium and inhibited the growth of the microbial strain tested.
(§6) After a suitable incubation period (16 to 48 hours) according to the optimum growth conditions, the resulting inhibition zone diameters (in mm) around the wells were measured to the nearest whole millimeter at the point at which there is a prominent reduction in growth. If growth is insufficient at the recommended times, the plates should be re-incubated and read later.
(In general: In agar diffusion tests the substance spreads into inoculated agar from a disc or well.)

Assay [2] relates to St. mutans. As to the kind of experiment: Minimum inhibition concentration, serial dilution. The format is cell-based. The note with it: Streptococcus mutans, 37 °C. As for the experimental part:
(§7) For each strain, three to five isolated colonies were selected from the fresh agar plate and transferred into a tube containing 3-4 ml of the sterile broth medium. The bacterial suspension was mixed well and incubated at 35-37 °C for 2-6 hours. […] After that, 1 mg of the tested compound (antimicrobial agent) was dissolved in 1 ml of DMSO and a two-fold serial dilution was done using a broth medium. A fixed volume of the prepared bacterial inoculum was added to each tube and incubated at 37 °C for 16-20 hours. The MIC is defined as the lowest concentration of the antimicrobial agent that inhibits visible growth of the tested isolate as observed with the unaided eye.

The subject of assay [3] is St. aureus. The experiment in a line: Minimum inhibition concentration, serial dilution. The note with it: Staphylococcus aureus, 37 °C. The assay is classed as cell-based. The procedure: as §7
The test system of assay [4] is K. pneumonia. As to the kind of experiment: Minimum inhibition concentration, serial dilution. The assay is classed as cell-based, Klebsiella pneumonia. The note with it: Klebsiella pneumoniae, 37 °C. As for the experimental part: as §7
The subject of assay [5] is all tested Gram-negative and Gram-positive strains. As to the kind of experiment: Minimum inhibition concentration, stated for all tested strains together. The assay is classed as cell-based. The procedure:
as §7

For assay [6], the target named is dihydrofolate reductase in Escherichia coli (Escherichia coli, UniProt P0ABQ4). As to the kind of experiment: In vitro DHFR inhibition assessment. The assay is classed as biochemical.
Sequence of dihydrofolate reductase in Escherichia coli (P0ABQ4 whole entry): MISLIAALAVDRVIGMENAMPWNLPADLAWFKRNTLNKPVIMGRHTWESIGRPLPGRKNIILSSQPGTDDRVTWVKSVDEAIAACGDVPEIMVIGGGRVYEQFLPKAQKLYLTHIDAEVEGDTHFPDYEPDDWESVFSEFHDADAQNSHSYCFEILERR
Assay [7] deals with P. aeruginosa. The experiment in a line: Minimum inhibition concentration, serial dilution. The assay is classed as cell-based, Pseudomonas aeruginosa. The note with it: Pseudomonas aeruginosa, 37 °C. The procedure:
as §7

Assay [8] deals with A. baumannii. The experiment in a line: Minimum inhibition concentration, serial dilution. The assay is classed as cell-based, Acinetobacter baumannii. The note with it: Acinetobacter baumannii, 37 °C. The procedure: as §7
For assay [9], the system named is E. coli. The experiment in a line: Minimum inhibition concentration, serial dilution. The format is cell-based, Escherichia coli. The note with it: Escherichia coli, 37 °C. As for the experimental part: as §7
Assay [10] deals with A. baumannii. As to the kind of experiment: Agar diffusion method, inhibition zone diameter. The assay is classed as cell-based, Acinetobacter baumannii. The note with it: Gram-negative.
From the text: as §1, §2, §3, §4, §5, §6

Assay [11] deals with P. aeruginosa. The experiment in a line: Agar diffusion method, inhibition zone diameter. The note with it: Gram-negative. The format is cell-based, Pseudomonas aeruginosa.
From the text: as §1, §2, §3, §4, §5, §6

For assay [12], the system named is St. aureus. As to the kind of experiment: Agar diffusion method, inhibition zone diameter. The format is cell-based, Staphylococcus aureus. The note with it: Gram-positive.
From the text: as §1, §2, §3, §4, §5, §6

In assay [13] the test system is E. coli. The experiment in a line: Agar diffusion method, inhibition zone diameter. The format is cell-based, Escherichia coli. The note with it: Gram-negative.
From the text: as §1, §2, §3, §4, §5, §6

Assay [14] has as its system K. pneumonia. As to the kind of experiment: Agar diffusion method, inhibition zone diameter. The assay is classed as cell-based, Klebsiella pneumonia. The note with it: Gram-negative.
From the text: as §1, §2, §3, §4, §5, §6

The subject of assay [15] is DHFR. Set-up: method as in PMID 28789907. The note with it: read-out: IC50 DHFR inhibition; cited from earlier work.
Assay [16] relates to DHFR. Also noted: method as in doi:10.1007/s00706-017-2032-7. The note with it: read-out: IC50 against DHFR activity; cited from earlier work.
The test system of assay [17] is St. aureus, B. subtilis, K. pneumonia and E. coli. Set-up: method as in doi:10.1007/s12039-020-01844-8. The note with it: as printed in Fig. 2; cited from earlier work.
The subject of assay [18] is E. coli and P. aeruginosa. Also noted: method as in earlier work. The note with it: cited from earlier work.

Converted amounts (≈) assume the structure as drawn. Read-outs that look alike come from different tables or passages of the source.

Consider `O=C(Nc1ccccc1)C(=Cc1ccc(OC(=O)c2ccccc2)cc1)c1nc2ccccc2s1` [4m, 4-(2-(Benzo[d]thiazol-2-yl)-3-oxo-3-(phenylamino)prop-1-en-1-yl)phenylbenzoate], for which the “IZD St. mutans” value in assay [1] amounted to 28 ± 1.1 mm. In addition, the MIC in [2], in assay [3], in assay [4], in [5], in assay [7] and in [8] was 0.0312 µg/mL (≈ 0.0656 µM) each time. The same compound yielded an MIC in [9] of 0.0312 µg/mL (≈ 0.0656 µM). The same compound came in with an IC50 in [6] of 2440 ± 128 nM. Also, in assay [6] (fold of trimethoprim, in words), the “inhibitory activity against DHFR relative to trimethoprim” value was “about four-fold”. Besides, the “IZD A. baumannii” value in assay [10] is 35 ± 1.1 mm. Moreover, the “IZD P. aeruginosa” value in [11] is listed as 30 ± 1 mm. The “IZD St. aureus” value in assay [12] is 25 ± 1.1 mm. The “IZD E. coli” value in assay [13] turned out to be 35 ± 1.1 mm. In addition, the “IZD K. pneumonia” value in assay [14] is given as 35 ± 1.1 mm.
On to `Clc1ccc(/C=N/c2nc3ccccc3s2)cc1` [II], for which, in assay [15], the IC50 is 31.2 nM.
For `Nc1nc(N)c(-c2nc3ccccc3s2)c(CCCOC(=O)CCl)n1` [IV], the IC50 in assay [16] was 1300 nM.
As for `O=[N+]([O-])c1cccc(/C=N/c2nc3ccccc3s2)c1` [I], in assay [15], the IC50 is 41.5 nM.
In the case of `O=C1CSC(c2cccc(Cl)c2Cl)N1c1nc2cc(OC(F)(F)F)ccc2s1` (centres unmarked) [VII], in assay [17], the MIC was 100 to 250 µg/mL.
Regarding `CC(=O)Nc1cc(-c2nc3ccccc3s2)ccc1OCC(=O)N/N=C/c1ccc(O)cc1` [V], the MIC in assay [18] is 0.2 µg/mL (≈ 0.434 µM).

Usually MIC stands for the least concentration at which growth counts as inhibited. The term IC50 denotes the point on the concentration scale where inhibition reaches its midpoint.
